“And” between values parts separate entries of the source, which are not always exact repeats. Equal entries are not always repeated. Where two headings read alike, the source gives them in different places.
Assays:
Type in all cases: biochemical
[1] = molecular target: T1, human factor XIa (Homo sapiens, UniProt P03951); test: Direct inhibition of factor XIa, chromogenic substrate S-2366 hydrolysis assay
T1 construct: purchased Haematologic Technologies (Essex Junction, Vt.); host or cells: human plasma
Method: Solvent A consisted of 25 mM n-hexylamine in water containing 0.1% (v/v) formic acid, while solvent B consisted of 25 mM n-hexylamine in acetonitrile-water mixture (3:1 v/v) containing 0.1% (v/v) formic acid. […] The sample was first monitored for absorbance in the range of 190-400 nm and then directly introduced into the mass spectrometer. ESI-MS detection was performed in positive ion mode for which the capillary voltage was 4 kV, cone voltage was 20 V, desolvation temperature was 350° C. and nitrogen gas flow was maintained at 650 L/hr. Mass scans were collected in the range of 1000-2048 amu within 0.25 s and several of these added to enhanced signal-to-noise ratio. Direct Inhibition of Factor XIa. […] After 10 min incubation, 5 μL factor XIa substrate (345 μM) was rapidly added and the residual FXIa activity was measured from the initial rate of increase in absorbance at 405 nm. […] Relative residual FXIa activity at each concentration of the inhibitor was calculated from the ratio of FXIa activity in the presence and absence of the inhibitor. Logistic equation 1 was used to fit the dose-dependence of residual protease activity to obtain the potency (IC50) and efficacy (ΔY) of inhibition.
Direct Inhibition of Factor XIa by Sulfated QAOs was performed as described in Example 1.
The ability of the sulfated inositol analogs to inhibit factor XIa was studied using the in vitro assay described in Example 1. In this assay, the factor XIa enzyme is anticipated to hydrolyze a particular peptide linkage in the corresponding peptide substrate releasing p-nitroaniline which absorbs at wavelength of 405 nm giving a line slope corresponds to the enzyme activity. The line slope of no inhibitor status is considered as a reference slope and it depends on the relative concentrations of factor XIa enzyme and its substrate. Factor XIa enzyme concentration was decided to get appropriate reference slope of approximately 25-35, whereas the substrate concentration was set to be larger than its affinity to factor XIa enzyme under equilibrium condition, Km. In presence of potential factor XIa inhibitor, the enzyme capacity to hydrolyze the designated peptide linkage in the substrate gets diminished or completely abolished depending on the inhibitor concentration and efficacy. […] Such decreased slope reflects a drop in the catalytic enzyme activity of factor XIa.

[2] = system: human plasma; test: Activated partial thromboplastin time (APTT) plasma clotting assay; details: human plasma, concentration doubling clotting time
Method: (§1) Plasma clotting assays, prothrombin and activated partial thromboplastin time (PT and APTT, respectively), are routinely used to assess the anticoagulation potential of new enzyme inhibitors in an in vitro setting. Whereas PT measures the effect of an inhibitor on the extrinsic pathway of coagulation, APTT measures the effect on the intrinsic pathway.
(§2) Prothrombin Time (PT) and Activated Partial Thromboplastin Time (APTT) were assessed as described in Example 1.

[3] = system: human plasma; test: Prothrombin time (PT) plasma clotting assay; details: for 2 × PT: concentration doubling clotting time
Method: as §1, §2

[4] = molecular target: T2, FXIa wild type (FXIa-WT) (Homo sapiens, UniProt P03951); test: Michaelis-Menten kinetics of S-2366 hydrolysis by full-length factor XIa; details: 14S 135 μM, pH 7.4, 37° C.
T2 construct: made in house; host or cells: HEK-293
Method: Plasma FIX (500 nM) was incubated with human FXIa (3 nM) in 50 mM Hepes buffer, pH 7.4, containing 125 mM NaCl, 5 mM CaCl2, and 0.1 mg/mL bovine serum albumin at 24° C. […] The primary antibody was goat anti-human FIX polyclonal IgG (Enzyme Research Laboratories, South Bend, Tenn.), and the secondary antibody was horseradish peroxidase-conjugated anti-goat IgG. Detection was by chemiluminescence. […] The inhibition profile was determined over a range of inhibitor concentrations to determine the IC50 of the enzyme-inhibitor complex. The KM of the substrate for its enzyme was used to identify the concentration of the substrate to be used for inhibition studies. […] Active site concentrations for preparations of FXIa were determined by titrations with human antithrombin in an S-2366 cleavage assay. The reaction was monitored using a SpectraMax 340 microtiter plate reader (Molecular Devices Corp., Sunnyvale, Calif.) with a reaction volume of 100 μL and path length of 3 mm. Each assay was performed in triplicate. The concentration of S-2366 was measured using an absorption coefficient of 8,266 M-1cm-1 at λ342 nm, while the free p-nitroaniline concentration was calculated using an absorption coefficient of 9,933 M cm^−1 at λ405 nm. The data was fitted using the standard Michaelis-Menten equation to determine the KM and VMAX. Results

[5] = sulfated QAOs, pH 7.4, 37° C., read-out: IC50 (converted)

T1 sequence (P03951 19-387 limits assumed): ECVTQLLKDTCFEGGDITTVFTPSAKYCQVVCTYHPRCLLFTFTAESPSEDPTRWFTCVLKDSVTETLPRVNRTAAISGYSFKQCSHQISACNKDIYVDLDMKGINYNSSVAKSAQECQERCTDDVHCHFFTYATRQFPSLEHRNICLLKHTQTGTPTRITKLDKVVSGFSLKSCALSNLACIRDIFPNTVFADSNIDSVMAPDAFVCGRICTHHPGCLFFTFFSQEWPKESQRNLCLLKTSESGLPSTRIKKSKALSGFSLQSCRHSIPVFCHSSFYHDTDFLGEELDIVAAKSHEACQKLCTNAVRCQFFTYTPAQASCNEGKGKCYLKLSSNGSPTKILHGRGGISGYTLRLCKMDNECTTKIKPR
T1 sequence (P03951 388-625 limits assumed): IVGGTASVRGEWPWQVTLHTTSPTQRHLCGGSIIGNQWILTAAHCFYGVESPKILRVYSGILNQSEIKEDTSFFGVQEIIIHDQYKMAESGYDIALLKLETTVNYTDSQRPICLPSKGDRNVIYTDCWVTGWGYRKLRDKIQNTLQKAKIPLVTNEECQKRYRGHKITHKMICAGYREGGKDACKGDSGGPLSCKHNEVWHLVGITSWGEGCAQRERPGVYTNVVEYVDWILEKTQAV
T2 sequence (P03951 19-387 limits assumed): as the sequence (P03951 19-387 limits assumed) above
T2 sequence (P03951 388-625 limits assumed): as the sequence (P03951 388-625 limits assumed) above

ΔY % (efficacy) ([1]; sulfated QAOs) | IC50 [1, 5] | SMILES | also measured
94 ± 1% | 94 µM and 90 µM | O=c1c2ccccc2nc(-c2ccc(OS(=O)(=O)O)cc2)n1CCCCCn1nncc1Cn1c(-c2ccc(OS(=O)(=O)O)cc2)nc2ccccc2c1=O [Inhibitor 29S] | 
91 ± 4% |  | O=c1c2ccccc2nc(-c2cccc(OS(=O)(=O)O)c2)n1CCCn1cc(Cn2c(-c3cccc(OS(=O)(=O)O)c3)nc3ccccc3c2=O)nn1 [Inhibitor 11S] | 
91 ± 2% | 82 µM and ~80 µM | O=c1c2ccccc2nc(-c2ccc(OS(=O)(=O)O)cc2)n1CCCCn1cc(Cn2c(-c3ccc(OS(=O)(=O)O)cc3)nc3ccccc3c2=O)nn1 [Inhibitor 13S] | 2 × APTT [2]: 979 µM; concentration for 2-fold increase in PT [3]: about 1.12 mM; 2 × PT [3]: 1119 µM
 | > 1000 µM | CC(=O)Oc1cccc(-c2nc3ccccc3c(=O)n2Cc2cn(CCCCn3c(-c4cccc(OS(=O)(=O)O)c4)nc4ccccc4c3=O)nn2)c1 [Inhibitor 7S] | factor XIa inhibition (in words) ([1]; pH 7.4, 37° C.): inactive
91 ± 2% | 273 ± 3 µM | CC(=O)Oc1cc(OS(=O)(=O)O)cc(-c2nc3ccccc3c(=O)n2CCCCn2cc(Cn3c(-c4cc(OS(=O)(=O)O)cc(OS(=O)(=O)O)c4)nc4ccccc4c3=O)nn2)c1 [Inhibitor 19S] | 
93 ± 2% | 213 ± 2 µM | O=c1c2ccccc2nc(-c2cccc(OS(=O)(=O)O)c2)n1CCCCn1cc(Cn2c(-c3cc(OS(=O)(=O)O)cc(OS(=O)(=O)O)c3)nc3ccccc3c2=O)nn1 [Inhibitor 18S] | 
88 ± 3% | 159 ± 2 µM | O=c1c2ccccc2nc(-c2ccc(OS(=O)(=O)O)cc2)n1CCCCn1cc(Cn2c(-c3cccc(OS(=O)(=O)O)c3)nc3ccccc3c2=O)nn1 [Inhibitor 12S] | 
 | > 1000 µM | O=c1c2ccccc2nc(-c2cc(OS(=O)(=O)O)cc(OS(=O)(=O)O)c2)n1CCCCn1cc(Cn2c(-c3cc(OS(=O)(=O)O)cc(OS(=O)(=O)O)c3)nc3ccccc3c2=O)nn1 [Inhibitor 20S] | 
 | 216 µM | COc1cc(-c2nc3ccccc3c(=O)n2CCCCn2cc(COc3cc(-c4oc5cc(OS(=O)(=O)O)cc(OC)c5c(=O)c4OS(=O)(=O)O)ccc3OS(=O)(=O)O)nn2)ccc1OS(=O)(=O)O [Inhibitor 26S] | 
 | > 1000 µM | COc1cc(OS(=O)(=O)O)cc2oc(-c3ccc(OS(=O)(=O)O)c(OCc4cn(CCCCn5c(-c6cccc(OS(=O)(=O)O)c6)nc6ccccc6c5=O)nn4)c3)c(OS(=O)(=O)O)c(=O)c12 [Inhibitor 25S] | 
 |  | O=C(OC1C(OC(=O)c2cc(OS(=O)(=O)O)cc(OS(=O)(=O)O)c2)C(OC(=O)c2cc(OS(=O)(=O)O)cc(OS(=O)(=O)O)c2)C(OC(=O)c2cc(OS(=O)(=O)O)cc(OS(=O)(=O)O)c2)C(OC(=O)c2cc(OS(=O)(=O)O)cc(OS(=O)(=O)O)c2)C1OC(=O)c1cc(OS(=O)(=O)O)cc(OS(=O)(=O)O)c1)c1cc(OS(=O)(=O)O)cc(OS(=O)(=O)O)c1 (stereo not drawn) [SMI, Sulfated hexa-substituted myo-inositol] | IC50 ([1]; read-out: FXIa-IC50): 0.09 µM
100 ± 6% |  | O=c1c2ccccc2nc(-c2cccc(OS(=O)(=O)O)c2)n1CCCCn1cc(Cn2c(-c3cccc(OS(=O)(=O)O)c3)nc3ccccc3c2=O)nn1 [Inhibitor 8S] | 
88 ± 5% | 182 ± 1 µM | COc1cc(-c2nc3ccccc3c(=O)n2CCCCn2cc(Cn3c(-c4cccc(OS(=O)(=O)O)c4)nc4ccccc4c3=O)nn2)ccc1OS(=O)(=O)O [Inhibitor 17S] | 
 |  | O=C(OC[C@H]1O[C@@H](OC(=O)c2cc(O)c(O)c(O)c2)[C@H](OC(=O)c2cc(O)c(O)c(O)c2)[C@@H](OC(=O)c2cc(O)c(O)c(O)c2)[C@@H]1OC(=O)c1cc(O)c(O)c(O)c1)c1cc(O)c(O)c(O)c1 [Inhibitor 5, pentagalloyl glucopyranoside, reference compound] | inhibition of FXIa proteolytic activity ([1]; highest concentration tested (300 μM)): completely inactive
98 ± 3% |  | O=c1c2ccccc2nc(-c2ccc(OS(=O)(=O)O)cc2)n1Cc1cn(CCn2cc(Cn3c(-c4ccc(OS(=O)(=O)O)cc4)nc4ccccc4c3=O)nn2)nn1 [Inhibitor 28S] | 
95 ± 1% | 139 ± 1 µM | COc1cc(-c2nc3ccccc3c(=O)n2CCCCn2cc(Cn3c(-c4ccc(OS(=O)(=O)O)c(OC)c4)nc4ccccc4c3=O)nn2)ccc1OS(=O)(=O)O [Inhibitor 10S] | 
103 ± 5% | 91 µM | O=c1c2ccccc2nc(-c2cccc(OS(=O)(=O)O)c2)n1CCCCn1cc(Cn2c(-c3ccc(OS(=O)(=O)O)cc3)nc3ccccc3c2=O)nn1 [Inhibitor 14S] | VMAX [4]: 5.1±0.5 mAU/min
89 ± 2% | 59 µM | O=c1c2ccccc2nc(-c2ccc(OS(=O)(=O)O)cc2)n1CCCCCn1cc(Cn2c(-c3ccc(OS(=O)(=O)O)cc3)nc3ccccc3c2=O)nn1 [Inhibitor 15S] | 2 × APTT [2]: 1062 µM; 2 × PT [3]: 1684 µM
96 ± 1% | 153 µM | CC(=O)Oc1cc(OS(=O)(=O)O)cc(-c2nc3ccccc3c(=O)n2Cc2cn(CCCCn3c(-c4cccc(OS(=O)(=O)O)c4)nc4ccccc4c3=O)nn2)c1 [Inhibitor 9S] | 

Reference: patent US9758459B2, “Allosteric modulators of factor XIa as anticoagulant agents” (VIRGINIA COMMONWEALTH UNIVERSITY, priority 2012, dated 2017)
